# Experimental data published in ChEMBL document CHEMBL1926516, “Induction of cell cycle arrest by the carbazole alkaloid Clauszoline-I from Clausena vestita D. D. Tao via inhibition of the PKCδ phosphorylation” (Eur J Med Chem, 2012).
# Activity calls are given as the source filed them. The calls are words filed in the database; no cut-off is given here.
# Legend:
# [1] = molecular target: Transforming protein RhoA (Homo sapiens) (UniProt P61586); experiment: Inhibition of RhoA activation in human HepG2 cells assessed as decrease of membrane-associated protein level at 10 uM after 24 hrs by Western blot analysis; type: cell-based
# [2] = molecular target: Protein kinase C delta type (Homo sapiens) (UniProt Q05655); conditions: HepG2, 10 uM
# Description: Inhibition of PKCdelta phosphorylation at Ser643 in human HepG2 cells at 10 uM after 1 hr by Western blot analysis
# HepG2 [3] = experiment: cells; type: functional, cell-based; conditions: Homo sapiens, HepG2, 48 h
# HepG2 [4] = experiment: Growth inhibition of human HepG2 cells at 4 uM after 24 to 72 hrs by WST-8 based CCK8 assay; type: functional, cell-based
# HepG2 [5] = experiment: Growth inhibition of human HepG2 cells at 16 uM after 24 to 72 hrs by WST-8 based CCK8 assay; type: functional, cell-based
# [6] = Cytotoxicity human L02 cells after 48 hrs by WST-8 based CCK8 assay; type: cell-based; conditions: L02, 48 h
# HeLa = experiment: Growth inhibition human HeLa cells after 48 hrs by WST-8 based CCK8 assay; type: functional, cell-based
# T98G = experiment: Growth inhibition human T98G cells after 48 hrs by WST-8 based CCK8 assay; type: cell-based
# [7] = Growth inhibition human CNE2 cells after 48 hrs by WST-8 based CCK8 assay; type: functional, cell-based; conditions: CNE-2, 48 h
# MDA-MB-231 = experiment: Growth inhibition human MDA-MB-231 cells after 48 hrs by WST-8 based CCK8 assay; type: functional, cell-based; conditions: MDA-MB-231, 48 h
# HepG2 [8] = experiment: Cytotoxicity against human HepG2 cells assessed as increase in cells with filamentous protrusions at 16 uM after 24 hrs using […] staining by confocal microscopy; type: functional, cell-based
# [9] = molecular target: Transforming protein RhoA (Homo sapiens) (UniProt P61586); experiment: Inhibition of RhoA activation in human HepG2 cells assessed as decrease of membrane-associated protein level at 16 uM after 24 hrs by Western blot analysis; type: cell-based
# [10] = molecular target: Transforming protein RhoA (Homo sapiens) (UniProt P61586); experiment: Inhibition of RhoA activation in human L02 cells assessed as decrease of membrane-associated protein level at 16 uM after 24 hrs by Western blot analysis; type: cell-based
# HepG2 [11] = experiment: Induction of apoptosis in human HepG2 cells at 16 uM after 24 hrs using propidium iodide staining by flow cytometry; type: functional, cell-based
# HepG2 [12] = experiment: Cell cycle arrest in human HepG2 cells assessed as accumulation at G0/G1 phase at 16 uM after 24 hrs using propidium iodide staining by flow cytometry (reference value: 71.5 %); type: functional
# HepG2 [13] = experiment: Cell cycle arrest in human HepG2 cells assessed as accumulation at S phase at 16 uM after 24 hrs using propidium iodide staining by flow cytometry (reference value: 21.6 %); type: functional
# HepG2 [14] = experiment: Cell cycle arrest in human HepG2 cells assessed as accumulation at G2/M phase at 16 uM after 24 hrs using propidium iodide staining by flow cytometry (reference value: 6.9 %); type: functional
# HepG2 [15] = experiment: Cell cycle arrest in human HepG2 cells assessed as decrease in Chk1 protein level in nucleus at 16 uM after 24 hrs by Western blot analysis; type: functional, cell-based
# HepG2 [16] = experiment: Cell cycle arrest in human HepG2 cells assessed as increase in cytoplasmic Chk1 protein level at 16 uM after 24 hrs by Western blot analysis; type: functional, cell-based
# HepG2 [17] = experiment: Cell cycle arrest in human HepG2 cells assessed as effect on Chk2 protein level in nucleus at 16 uM after 24 hrs by Western blot analysis; type: functional, cell-based
# HepG2 [18] = experiment: Cell cycle arrest in human HepG2 cells assessed as effect on cytoplasmic Chk2 protein level at 16 uM after 24 hrs by Western blot analysis; type: functional, cell-based
# [19] = Cell cycle arrest in human L02 cells assessed as effect on Chk1 protein level in nucleus at 16 uM after 24 hrs by Western blot analysis; type: ADME, cell-based; conditions: l02, 24 h
# [20] = Cell cycle arrest in human L02 cells assessed as effect on cytoplasmic Chk1 protein level at 16 uM after 24 hrs by Western blot analysis; type: ADME, cell-based; conditions: l02, 24 h
# [21] = Cell cycle arrest in human L02 cells assessed as effect on Chk2 protein level in nucleus at 16 uM after 24 hrs by Western blot analysis; type: ADME, cell-based; conditions: l02, 24 h
# [22] = Cell cycle arrest in human L02 cells assessed as effect on cytoplasmic Chk2 protein level at 16 uM after 24 hrs by Western blot analysis; type: ADME, cell-based; conditions: l02, 24 h
# [23] = molecular target: Protein kinase C delta type (Homo sapiens) (UniProt Q05655); experiment: Inhibition of PKCdelta phosphorylation at Ser643 in human HepG2 cells by Western blot analysis; type: cell-based
# [24] = molecular target: Protein kinase C delta type (Homo sapiens) (UniProt Q05655); experiment: Inhibition of PKCdelta phosphorylation at Ser643 in human L02 cells by Western blot analysis; type: cell-based
# [25] = molecular target: PKC alpha and beta-2 (Homo sapiens) (UniProt P17252+P05771); experiment: Inhibition of PKCalpha/beta2 phosphorylation at Thr 638/641 in human HepG2 cells by Western blot analysis; type: cell-based
# [26] = molecular target: Protein kinase C delta type (Homo sapiens) (UniProt Q05655); experiment: Inhibition of PKCdelta phosphorylation at Thr505 in human L02 cells by Western blot analysis; type: cell-based
# [27] = molecular target: Protein kinase C iota type/zeta type (Homo sapiens) (UniProt P41743+Q05513); experiment: Inhibition of PKCzeta/lambda phosphorylation at Thr410/403 in human HepG2 cells by Western blot analysis; type: cell-based
# HepG2 [28] = experiment: Cytotoxicity against human HepG2 cells assessed as decrease in F-actin staining at 16 uM after 24 hrs using […] staining by confocal microscopy; type: functional, cell-based
# Transforming protein RhoA (Homo sapiens), sequence (P61586 whole entry): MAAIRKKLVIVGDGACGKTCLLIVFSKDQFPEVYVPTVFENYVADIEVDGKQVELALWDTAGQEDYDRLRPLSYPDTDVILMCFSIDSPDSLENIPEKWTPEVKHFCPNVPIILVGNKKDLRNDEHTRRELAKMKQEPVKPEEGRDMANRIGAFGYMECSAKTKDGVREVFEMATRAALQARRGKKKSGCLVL
# Protein kinase C delta type (Homo sapiens), sequence (Q05655 whole entry, looked up): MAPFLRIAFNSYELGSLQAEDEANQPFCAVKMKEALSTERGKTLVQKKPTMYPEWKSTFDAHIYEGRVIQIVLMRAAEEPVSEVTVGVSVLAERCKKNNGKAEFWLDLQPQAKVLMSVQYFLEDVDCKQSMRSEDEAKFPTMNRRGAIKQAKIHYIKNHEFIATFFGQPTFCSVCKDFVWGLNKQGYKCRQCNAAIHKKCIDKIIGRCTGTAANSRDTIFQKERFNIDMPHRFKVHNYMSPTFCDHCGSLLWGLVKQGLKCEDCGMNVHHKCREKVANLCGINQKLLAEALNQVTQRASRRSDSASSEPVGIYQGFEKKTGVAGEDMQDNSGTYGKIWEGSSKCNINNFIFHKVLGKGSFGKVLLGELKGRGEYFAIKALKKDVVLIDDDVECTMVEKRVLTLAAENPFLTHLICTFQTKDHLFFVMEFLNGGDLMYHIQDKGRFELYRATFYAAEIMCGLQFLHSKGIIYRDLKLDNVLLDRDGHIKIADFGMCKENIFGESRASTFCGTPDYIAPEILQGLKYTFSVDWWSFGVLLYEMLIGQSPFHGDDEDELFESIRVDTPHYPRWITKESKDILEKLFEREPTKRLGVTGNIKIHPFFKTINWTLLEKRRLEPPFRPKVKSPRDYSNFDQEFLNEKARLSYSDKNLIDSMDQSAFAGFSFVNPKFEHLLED
# PKC alpha and beta-2 (Homo sapiens), sequence (P05771 whole entry, looked up): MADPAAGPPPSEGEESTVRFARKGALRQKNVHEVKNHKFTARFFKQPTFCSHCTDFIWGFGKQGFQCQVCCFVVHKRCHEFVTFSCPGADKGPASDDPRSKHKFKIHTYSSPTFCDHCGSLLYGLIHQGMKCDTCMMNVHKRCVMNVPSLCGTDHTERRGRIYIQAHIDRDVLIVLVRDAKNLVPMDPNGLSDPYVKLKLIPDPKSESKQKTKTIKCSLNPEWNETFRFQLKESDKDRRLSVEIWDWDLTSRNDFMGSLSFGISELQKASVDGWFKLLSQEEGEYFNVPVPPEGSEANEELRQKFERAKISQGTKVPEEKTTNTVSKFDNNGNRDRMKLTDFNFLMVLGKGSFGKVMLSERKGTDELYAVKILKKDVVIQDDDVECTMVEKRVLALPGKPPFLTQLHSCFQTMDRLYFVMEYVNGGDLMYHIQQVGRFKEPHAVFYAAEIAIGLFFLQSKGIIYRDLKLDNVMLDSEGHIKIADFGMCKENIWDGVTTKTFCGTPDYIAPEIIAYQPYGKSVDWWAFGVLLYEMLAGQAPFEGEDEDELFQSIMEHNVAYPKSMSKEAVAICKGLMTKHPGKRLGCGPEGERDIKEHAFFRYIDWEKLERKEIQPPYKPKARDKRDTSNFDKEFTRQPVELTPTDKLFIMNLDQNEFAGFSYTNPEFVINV
# Protein kinase C iota type/zeta type (Homo sapiens), sequence (P41743 whole entry, looked up): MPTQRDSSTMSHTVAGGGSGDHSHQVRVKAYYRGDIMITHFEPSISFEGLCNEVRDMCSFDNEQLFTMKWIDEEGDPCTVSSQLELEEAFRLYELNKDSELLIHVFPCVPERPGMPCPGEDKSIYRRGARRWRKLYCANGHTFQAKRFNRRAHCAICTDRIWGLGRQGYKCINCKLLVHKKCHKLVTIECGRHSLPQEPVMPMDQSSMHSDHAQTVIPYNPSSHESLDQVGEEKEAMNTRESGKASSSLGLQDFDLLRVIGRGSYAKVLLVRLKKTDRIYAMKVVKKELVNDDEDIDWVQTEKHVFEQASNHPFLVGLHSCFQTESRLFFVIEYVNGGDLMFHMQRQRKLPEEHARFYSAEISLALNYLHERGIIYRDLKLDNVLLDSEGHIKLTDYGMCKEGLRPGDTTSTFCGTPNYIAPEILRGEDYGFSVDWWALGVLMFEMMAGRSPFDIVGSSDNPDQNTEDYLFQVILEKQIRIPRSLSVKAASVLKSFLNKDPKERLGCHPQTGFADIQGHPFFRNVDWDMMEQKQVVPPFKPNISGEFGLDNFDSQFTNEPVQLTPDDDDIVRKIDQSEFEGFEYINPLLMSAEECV
# Protein kinase C iota type/zeta type (Homo sapiens), sequence (Q05513 whole entry, looked up): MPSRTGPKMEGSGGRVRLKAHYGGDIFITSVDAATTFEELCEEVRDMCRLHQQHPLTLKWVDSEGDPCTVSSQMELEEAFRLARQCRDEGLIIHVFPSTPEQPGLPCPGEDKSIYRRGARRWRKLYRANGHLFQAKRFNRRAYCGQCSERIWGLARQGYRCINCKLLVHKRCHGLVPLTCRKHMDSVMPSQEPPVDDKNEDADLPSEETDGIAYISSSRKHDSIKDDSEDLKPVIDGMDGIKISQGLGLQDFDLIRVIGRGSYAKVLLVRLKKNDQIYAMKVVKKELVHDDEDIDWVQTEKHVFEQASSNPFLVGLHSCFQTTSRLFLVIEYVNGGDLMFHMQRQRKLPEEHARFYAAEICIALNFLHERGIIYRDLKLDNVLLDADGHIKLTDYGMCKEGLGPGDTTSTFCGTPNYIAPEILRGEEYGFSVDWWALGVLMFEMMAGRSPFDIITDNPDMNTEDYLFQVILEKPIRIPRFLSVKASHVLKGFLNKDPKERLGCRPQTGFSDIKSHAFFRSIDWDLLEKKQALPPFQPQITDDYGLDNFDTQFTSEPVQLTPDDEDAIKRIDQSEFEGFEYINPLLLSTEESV
compound,measurement,setting,value
CC(=O)c1c(O)c(C)c(O)c(Cc2c(O)c3c(c(C(=O)/C=C/c4ccccc4)c2O)OC(C)(C)C=C3)c1O,inhibition,[1],Active
same,inhibition,[2],Active
O=Cc1cc2c(cc1O)[nH]c1cc(O)ccc12 [CLAUSINE O],IC50,HepG2 [3],32.8 µM
COc1ccc2c(c1)[nH]c1cc(O)c(C=O)cc12,IC50,HepG2 [3],28.6 µM
COc1ccc2c(c1)[nH]c1ccc(C=O)cc12 [CLAUSZOLINE K],IC50,HepG2 [3],4.23 µM
same,growth inhibition (GI),HepG2 [4],Active
same,growth inhibition (GI),HepG2 [5],Active
same,IC50,[6],72.5 µM
O=Cc1cc2c(cc1O)[nH]c1ccccc12 [MUKONAL],IC50,HepG2 [3],65.9 µM
COC(=O)c1ccc2[nH]c3ccccc3c2c1,IC50,HepG2 [3],36.9 µM
Cc1cc2c(cc1O)[nH]c1ccccc12,IC50,HepG2 [3],14.4 µM
same,IC50,[6],85.2 µM
COc1c2ccoc2nc2c(OC)cccc12 [GAMMA-FAGARINE],IC50,HepG2 [3],> 160 µM
COC(=O)c1cc(O)c2[nH]c3ccccc3c2c1 [CLAUSINE E],IC50,HepG2 [3],15.8 µM
same,growth inhibition (GI),HepG2 [4],Active
same,growth inhibition (GI),HepG2 [5],Active
same,IC50,[6],> 160 µM
same,IC50,HeLa,13.3 µM
same,IC50,T98G,71.6 µM
same,IC50,[7],16.9 µM
same,IC50,MDA-MB-231,37.1 µM
same,Activity,HepG2 [8],Active
same,inhibition,[9],Active
same,inhibition,[10],inactive
same,Activity,HepG2 [11],inactive
same,Activity,HepG2 [12],55.9%
same,Activity,HepG2 [13],31.1%
same,Activity,HepG2 [14],13.1%
same,Activity,HepG2 [15],Active
same,Activity,HepG2 [16],Active
same,Activity,HepG2 [17],inactive
same,Activity,HepG2 [18],inactive
same,Activity,[19],Non-toxic
same,Activity,[20],Non-toxic
same,Activity,[21],Non-toxic
same,Activity,[22],Non-toxic
same,inhibition,[23],Dose-dependent effect
same,inhibition,[24],inactive
same,inhibition,[25],inactive
same,inhibition,[26],inactive
same,inhibition,[27],inactive
same,Activity,HepG2 [28],Active
COc1cc(=O)n(C)c2ccccc12,IC50,HepG2 [3],> 160 µM
COc1c2ccccc2nc2occc12 [DICTAMNINE],IC50,HepG2 [3],55.2 µM
Cc1cc2c([nH]c3ccccc32)c2c1OC(C)(C)C=C2 [GRINIMIBINE],IC50,HepG2 [3],> 160 µM
COC(=O)c1cc2c(cc1OC)[nH]c1cc(OC)ccc12 [CLAUSZOLINE C],IC50,HepG2 [3],> 160 µM
COc1ccc2c(c1)[nH]c1cc(OC)c(C=O)cc12 [LANSINE],IC50,HepG2 [3],102 µM
O=Cc1cc(O)c2[nH]c3ccc(O)cc3c2c1,IC50,HepG2 [3],135 µM
COc1ccc2c(c1)[nH]c1cc(OC)c(C(=O)O)cc12 [CLAUSINE K],IC50,HepG2 [3],24.4 µM
COC(=O)c1cc2c(cc1O)[nH]c1ccccc12 [MUKONIDINE],IC50,HepG2 [3],> 160 µM
